Data on 2 compounds can be found in paper PMC11195807, “Development of a multi-targeted chemotherapeutic approach based on G-quadruplex stabilisation and carbonic anhydrase inhibition” (Journal of Enzyme Inhibition and Medicinal Chemistry, 2024).

One experiment concerns Hairpin. The experiment is described as follows: CD melting experiments, hairpin DNA duplex. Particulars: 2 molar equiv compound, T1/2 of DNA alone 66.0 °C.
Another experiment deals with T1, hCA IX (Homo sapiens, UniProt Q16790).
T1 construct: made in house
The experiment is described as follows: stopped-flow CO2 hydrase assay, hCA IX. The note with it: for Ki: mean ± SEM of three assays. The experiment is classed as biochemical. An outline of the steps: (§1)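 Inhibition of CA-catalysed CO2 hydration measured by stopped-flow technique. Recombinant human CA IX and XII enzymes produced in-house.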

A further experiment has as its system c-Kit1. The experiment is described as follows: CD melting experiments, c-Kit1 GQ. It is filed as binding. Particulars: for ΔT1/2 c-Kit1: 2 molar equiv compound, T1/2 of DNA alone 55.0 °C; for ΔΔT1/2 c-Kit1: ΔT1/2 of compound minus ΔT1/2 of berberine, 2 molar equiv.
The subject of the next experiment is HeLa cells. The experiment is described as follows: MTT assay, HeLa cells in normoxia. It is filed as cell-based. Particulars: 48 h; for IC50 (50% of cell viability reduction), MTT assay / IC50: normoxia; for IC50: Homo sapiens, read-out: IC50 (50% of cell viability reduction), MTT assay. The source says: Combining the results on carbonic anhydrase inhibition and GQ thermal stabilisation, we selected the sulphonamides S-2,0, S-4,0, S-5,0 and the coumarins C-3,2, C-4,2, C-5,2 as the most promising MTDLs to be further investigated, since able to both efficiently suppress the activity of the hCAs IX/XII and stabilise GQ structures, in vitro. Moreover, given that crystals suitable for X-ray diffraction analyses had been successfully obtained for the human telomeric DNA GQ in complex with S-3,2, we also included such sulphonamide derivative in the subsequent studies. Thus, we assessed the cytotoxicity of the selected MTDLs on CA IX-positive HeLa cells, using the MTT assay.
HeLa cells were grown in Dulbecco’s Modified Eagle’s Medium supplemented with 10% FBS, 100 U/mL penicillin, and 100 μg/mL streptomycin, at 37 °C, in a 5% CO2/95% air atmosphere. Cells were sub-cultured at 90% confluence, in the split ratio 1:8, every 3–5 days. The MTDLs used in this study, as well as the CAIs S and C, were dissolved in DMSO at 40 mM (for the sulphonamides) or 10 mM (for the coumarins) concentration. As for berberine, a 50 mM stock solution in DMSO was prepared. Each tested compound was diluted in cell culture medium to the required concentration, immediately prior to use. As regards the experiments under hypoxic conditions, an 80 mM stock solution of CoCl2 was prepared in sterile distilled water and further diluted in medium to obtain the final desired concentrations.
For the MTT experiments in the presence of normal oxygen levels, HeLa cells were seeded in 96-well plates at a density of 15,000 cells per well (culture medium volume – 100 μL/well) and incubated at 37 °C, for 24 h. The medium was then removed, and HeLa were incubated, for 48 h, with fresh medium containing increasing concentrations of MTDLs, single-target-directed agents (berberine, S, and C) or vehicle (0.5% DMSO). The MTDL C-4,2 was also tested for 12 h. As for the co-treatments, cells were co-treated for 12 h with equimolar concentrations of berberine and C. As regards the MTT experiments under hypoxic conditions, HeLa cells were seeded in 96-well plates (8,000 cells per well) and incubated overnight, pre-treated with 50 μM cobalt (II) chloride hexahydrate (CoCl2) and then, for the following 12 h, either exposed to increasing concentrations of C-4,2 or vehicle (0.5% DMSO), or co-treated with equimolar concentrations of berberine and C. Each condition was assayed in triplicate. At the end of the treatments, 10 µL of MTT reagent were added to each well, at a final concentration of 0.5 mg/mL, and the plates were incubated at 37 °C for 4 h. To dissolve the resulting purple formazan crystals, 100 μL of the solubilisation solution were added into each well and the plates were allowed to stand overnight in the incubator (37 °C, 5% CO2/95% air). Finally, the optical density of the samples (at 570 nm) was measured on an ELx800 Absorbance Microplate Reader (BioTek Instruments, Inc., Winooski, VT, USA). The percentage (%) of cell survival for each condition was calculated by using the following equation: % cell survival=OD− OD0/ODCONTROL− OD0×100 where OD is the optical density of the sample, OD0 is the optical density of the background signal, and ODCONTROL is the optical density of the control sample (cells treated with vehicle, 0.5% DMSO). The concentration able to reduce by 50% the cellular viability (IC50) was calculated, for each investigated compound, using Prism 8.0.2 (GraphPad, San Diego, CA, USA) and plotting the percentage of cell survival versus the compound concentration (µM).

In the next experiment the target is T2, hCA XII (Homo sapiens, UniProt O43570).
T2 construct: made in house
The experiment is described as follows: stopped-flow CO2 hydrase assay, hCA XII. It is filed as biochemical. The note with it: for Selectivity index (SI) I/XII: hCA XII over hCA I; for Selectivity index (SI) II/XII: hCA XII over hCA II; for Ki: mean ± SEM of three assays. An outline of the steps:
as §1

The next experiment deals with Tel23. The experiment is described as follows: CD melting experiments, Tel23 GQ. The experiment is classed as binding, human. Particulars: for ΔT1/2 Tel23: 2 molar equiv compound, T1/2 of DNA alone 53.5 °C; for ΔΔT1/2 Tel23: ΔT1/2 of compound minus ΔT1/2 of berberine, 2 molar equiv.
The test system of the next experiment is c-Myc. The experiment is described as follows: CD melting experiments, c-Myc GQ. It is filed as binding. The note with it: for ΔT1/2 c-Myc: 1 molar equiv compound, T1/2 of DNA alone 70.0 °C; for ΔΔT1/2 c-Myc: ΔT1/2 of compound minus ΔT1/2 of berberine, 1 molar equiv.
[1] abbreviates: sulphonamides, inhibitor-enzyme incubation 15 min.
Where [2] appears, read: coumarins, inhibitor-enzyme incubation 6 h.

T2 sequence (O43570 25-354): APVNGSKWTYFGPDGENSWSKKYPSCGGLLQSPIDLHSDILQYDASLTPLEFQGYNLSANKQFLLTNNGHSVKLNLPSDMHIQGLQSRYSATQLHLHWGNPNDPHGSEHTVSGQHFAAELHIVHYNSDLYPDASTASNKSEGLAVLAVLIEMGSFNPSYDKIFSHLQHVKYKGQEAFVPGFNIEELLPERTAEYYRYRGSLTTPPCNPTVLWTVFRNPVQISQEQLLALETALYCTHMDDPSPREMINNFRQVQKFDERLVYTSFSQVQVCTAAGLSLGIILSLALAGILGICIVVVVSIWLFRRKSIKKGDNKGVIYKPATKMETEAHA

Consider `COc1ccc2cc3[n+](cc2c1OCCCCCn1cc(-c2ccc(S(N)(=O)=O)cc2)nn1)CCc1cc2c(cc1-3)OCO2` [Compound 32, 10-Methoxy-9-((5–(4-(4-sulfamoylphenyl)-1H-1,2,3-triazol-1-yl)pentyl)oxy)-5,6-dihydro-[1,3]dioxolo[4,5-g]isoquinolino[3,2-a]isoquinolin-7-ium hexafluorophosphate], for which the “ΔT1/2 Hairpin” value in the experiment with Hairpin was -1.0 °C. Moreover, the “Selectivity index (SI) I/IX” value at hCA IX (hCA IX over hCA I) is reported as 2390. Besides, the “Selectivity index (SI) II/IX” value at hCA IX (hCA IX over hCA II) amounted to 65.8. Further, the Ki on hCA IX (setting [1]) turned out to be 0.00024 ± 2e-05 µM. Also, in the experiment with c-Kit1, the “ΔT1/2 c-Kit1” value was 19.0 °C and the “ΔΔT1/2 c-Kit1” value stood at 6.0 °C. The “ΔΔT1/2 c-Kit1” value in the experiment with c-Kit1 (listed as S-5,0) is no less than 6.0 °C. Further, the “reduction in the percentage of cell survival” value in the experiment with HeLa cells (concentration up to 200 µM) was “around 40%”. For the same compound, in the experiment with HeLa cells, the “IC50 (50% of cell viability reduction), MTT assay” value is recorded as “fell outside the explored range of concentrations” and the IC50 is greater than 200 µM. Further, at hCA XII, the “Selectivity index (SI) I/XII” value was found to be 31.3 and the “Selectivity index (SI) II/XII” value stood at 0.9. This compound showed a Ki on hCA XII (setting [1]) of 0.0183 ± 0.001 µM. Also, in the experiment on Tel23, the “ΔT1/2 Tel23” value was 12.0 °C and the “ΔΔT1/2 Tel23” value worked out at 2.5 °C. Besides, in the experiment with c-Myc, the “ΔT1/2 c-Myc” value came out at 13.0 °C and the “ΔΔT1/2 c-Myc” value was determined as 1.0 °C.
Turning to `COc1ccc2cc3[n+](cc2c1OCCCn1cc(COc2ccc4ccc(=O)oc4c2)nn1)CCc1cc2c(cc1-3)OCO2` [Compound 34, 10-Methoxy-9–(3-(4-(((2-oxo-2H-chromen-7-yl)oxy)methyl)-1H-1,2,3-triazol-1-yl)propoxy)-5,6-dihydro-[1,3]dioxolo[4,5-g]isoquinolino[3,2-a]isoquinolin-7-ium hexafluorophosphate], the “ΔT1/2 Hairpin” value with Hairpin is “+1.0 °C”. This compound had a Ki on hCA IX (setting [2]) of 0.066 ± 0.0043 µM. Further, in the experiment with c-Kit1, the “ΔT1/2 c-Kit1” value worked out at 20.0 °C and the “ΔΔT1/2 c-Kit1” value came out at 7.0 °C. Also, in the experiment with HeLa cells, the “IC50 (50% of cell viability reduction), MTT assay” value is on record as “fell outside the explored range of concentrations” and the half-maximal inhibitory concentration (IC50) was greater than 50 µM. Moreover, the inhibition constant (Ki) at hCA XII (setting [2]) turned out to be 0.0301 ± 0.0015 µM. At hCA XII, the “Selectivity index (SI) I/XII” value is greater than 332.2 and the “Selectivity index (SI) II/XII” value is greater than 332.2. In the experiment on Tel23, the “ΔT1/2 Tel23” value stood at 10.5 °C and the “ΔΔT1/2 Tel23” value amounted to 1.0 °C. In addition, in the experiment with c-Myc, the “ΔT1/2 c-Myc” value is 18.0 °C and the “ΔΔT1/2 c-Myc” value amounted to 6.0 °C.

For orientation: Ki means a dissociation constant, usually derived from enzyme kinetics or from competition with a known ligand. As a reminder, the IC50 is the point on the concentration scale where inhibition reaches its midpoint.
